Reference: patent US20110119780A1, “SCREENING FOR NON-GENOTOXIC CARCINOGENS” (priority 2008, published 2011)
“And” between values parts separate entries of the source, which are not always exact repeats. Equal entries are not always repeated.

What was measured:
[1] = PXR/CAR-dependent hepatomegaly by PB (body, liver weights); settings: 80 mg/kg IP x4 days; for Body weight - Day 1 / Body weight - Day 5 / Liver weight / Liver/Body weight Ratio: Mean ± SD
Source text: In order to assess whether humanised PXR/CAR mice mimic the response to PB in humans, the huPXR/huCAR and PXRKO/CARKO mouse models were used. The mutant mouse strains were obtained from Artemis. The WT mouse strain C57BL/6J was obtained from Harlan (UK). All animals were between 10 and 16 weeks of age.The following parameters were studied: • Liver/body weight ratios • BrdU incorporation analysed as a measure of cell proliferation • Haematoxylin and eosin (H&E) liver histopathology • Expression and activity of P450s by SDS-PAGE and Western blotting in liver microsomes • Apoptotic indices as analysed by TUNEL assay in the liver
(§1) The study consisted of 6 groups with 10 WT mice per group, 9-10 PXRKO/CARKO mice per group and 9 huPXR/huCAR mice per group (Table 19). […] On Day 1 all animals were dosed with either 80 mg/kg PB/saline or saline alone by intraperitoneal injection for 4 days as detailed in Table 19.
Following treatment with PB or the vehicle, the mice were sacrificed and their livers were removed and weighed.

[2] = tested on: hepatocellular proliferation; assay: Hepatic cell proliferation, BrdU incorporation (S-phase labelling index); settings: for % mean (S-phase labelling index relative to control of the same mouse line = 100) / % BrDu positive Cells, Mean / % BrDu positive Cells (hepatic S-phase labelling index), individual mouse: PB-treated; for % BrDu positive Cells, Mean: group mean; for % BrDu positive Cells (hepatic S-phase labelling index), individual mouse: individual animals
Method: Osmotic pumps containing BrdU (15 mg/ml/PBS) were implanted into WT, huPXR/huCAR and PXRKO/CARKO mice prior to PB treatment (80 mg/kg/4 days/IP). Livers sections were labelled using a Brdu antibody (Dako). All microscopic images were captured at a magnification of 40×. Data represents random sampling of 10 images per lobes (2) counting approximately 180,000 cells/animal group, as according to Pat-0013-0014. Values are expressed as Mean±SD, n=9-10 for control mice, n=8-9 for PB-treated mice.
as §1
All mouse liver and duodenum sections were analysed for BrdU incorporation as a measure of cell proliferation. The method used was an indirect BrdU labelling assay.

[3] = tested on: hepatocellular apoptosis; assay: Liver in situ cell death, TUNEL labelling assay (apoptotic indices); format: in vivo; settings: WT, huPXR/huCAR and PXRKO/CARKO mice; Student's t-test
Source text: Livers sections were labelled using a TUNEL in situ cell detection kit (Roche). […] Data represents random sampling of 20 images per lobes (2) counting approximately 380,000 cells/animal group.
However, no such consistency has been observed in mice. An indirect TUNEL labelling assay was used to analyse hepatic in situ death (FIG. 9/Table 21). The present study has shown a marker variation in apoptotic indices in mouse liver. Thus, small (e.g. 50%) compound-induced decreases, upon a low background, were not readily demonstrable.

[4] = tested on: hepatocellular hypertrophy; assay: H&E analysis of liver sections, PB; format: in vivo, mice; settings: 80 mg/kg IP x4 days
Source text: Portal vein (P) and central vein (C) are labelled. A 20× objective lens was used to capture the images.
Two samples of the liver (one from the lobe, one from the median lobe) and one sample of the small intestine were taken and preserved in 4% neutral buffered formaldehyde (NBF). The preserved liver samples of all mice of all groups were trimmed, processed and embedded in paraffin. The paraffin-embedded samples were sent to Progenix, Inverkeithing, UK where they were sectioned at a nominal thickness of about 5 æm and then stained with haematoxylin and eosin (H&E). One section of each organ sample was examined by Dr. Ortwin Vogel, Consultant Pathologist, Kiel, Germany. Subsequent to his histopatholoical analysis of all H&E stained mouse livers and small intestines, Dr. Vogel reported the following finding;

[5] = tested on: Cyp3a11; assay: Hepatic P450 induction: benzyloxyquinoline debenzylation (BQ) in liver microsomes; format: in vivo, mouse; settings: 80 mg/kg IP x4 days
Method: (§2) Each assay was performed on individual liver microsomes. Values are expressed as Mean±SD (n=9/10).

[6] = tested on: Cyp2b10; assay: Hepatic P450 induction: PROD and BROD in liver microsomes; format: in vivo, mouse; settings: 80 mg/kg IP x4 days
Method: as §2
BROD and PROD are markers of Cyp2b10 activity in the mouse. […] However, PROD or BROD activities were not altered in the PXRKO/CARKO mice upon exposure to PB. Overall, PB induced P450 catalytic activities in the WT and huPXR/huCAR mouse lines, but not in the animals which were devoid of these receptors.

[7] = tested on: Cyp1a1/1a2; assay: Hepatic P450 induction: MROD and EROD in liver microsomes; settings: 80 mg/kg IP x4 days
Method: as §2
P450 catalytic activities in the liver microsomal fractions were quantified. For the quantification of mouse Cyp2b10 and Cyp3a11 activities, the dealkylation of pentoxyresofurin (PROD) and the debenzylation of benzyloxyquinoline (BQ) activities, respectively. In addition, […] (BROD), methoxyresorufin-O-demethylase (MROD) and 7-ethoxyresorufin-)-deethylase (EROD) activities were also measured and evaluated (see FIG. 11).
EROD activity is indicative of Cyp1a1/1a2 and Cyp1b1 in the mouse, whereas MROD is a substrate for Cyp1a2. However, other isoforms may be contributing to the measured activities.

[8] = tested on: Cyp2b10 and Cyp3a11; assay: Cyp2b10 and Cyp3a11 protein in pooled liver microsomes by Western blotting, PB; format: in vivo, mouse
Method: Liver microsomes (0.3 ug) from each animal were pooled (n=9/10) for wild type, huPXR/huCAR and PXRKO/CARKO mice and characterised for Cyp2b10 and Cyp3a11 by immunoblotting using rabbit polyclonal CH4 (1:2000 dilution) and CH32 antibodies (1:2000 dilution), respectively (C. Henderson, University of Dundee, UK); +ve, control was either purified recombinant his-tagged Cyp3a11 membranes (0.1 pmol/u.l) or purified recombinant his-tagged Cyp2b10 membranes (O.Olpmol/u.l). Blots were developed using ECL and exposed for 30 secs.

[9] = tested on: Cyp3a11 and Cyp2b10; assay: Inductive effect of Phenobarbital in a panel of PXR/CAR knockout and humanised mice
[10] = tested on: hepatocellular hypertrophy; assay: H&E staining of liver sections, Chlordane-treated mice; format: in vivo
Source text: A 20× objective lens was used to capture the images.

[11] = Pentobarbitone sleeping test; format: in vivo, mice; settings: male, single intraperitoneal dose 25 mg/kg
Method: In this experiment, the activity of these transcription factors in combination was determined by measuring the barbiturate induced sleeping time. Sleeping time has been known for many years to be directly proportional to the hepatic cytochrome P450 activity and this activity can be at least in part ascribed to the P450 levels in the liver determined by CAR and PXR function.
Mice were given a single intraperitoneal dose of Narcoren (sodium pentobarbitone; purchased via a Veterinary Consultant; distributed by Merial GmbH, Germany) at 25 mg/kg of body weight. The time taken for the mice to lose, and subsequently to regain, their righting reflex was measured.

## CCC1(c2ccccc2)C(=O)NC(=O)NC1=O [PB, Phenobarbital]
[1]; PXRKO/CARKO mice
  Body weight - Day 1, % mean own control: (100 ± 8) %
  Body weight - Day 5, % mean own control: (98 ± 8) %
  Liver weight, % mean own control: (98 ± 16) %
  Liver/Body weight Ratio, % mean own control: (100 ± 9) %
  Body weight - Day 1: 27.2 ± 2.2 g
  Body weight - Day 5: 26.6 ± 2.2 g
  Liver weight: 1.42 ± 0.23 g
  Liver/Body weight Ratio: 5.3 ± 0.4
[1]; WT mice
  Body weight - Day 1, % mean own control: (106 + 6) %
  Body weight - Day 5, % mean own control: (84 ± 5) %
  Liver weight, % mean own control: (101 ± 6) %
  Body weight - Day 1: 26.4 ± 1.8 g
  Body weight - Day 5: 23.2 ± 1.3 g
  Liver weight: 1.44 ± 0.09 g
  Liver/Body weight Ratio: 6.2 ± 0.2
[1]; huPXR/huCAR mice
  Body weight - Day 1, % mean own control: (104 ± 5) %
  Body weight - Day 5, % mean own control: (99 ± 6) %
  Liver weight, % mean own control: (121 ± 11) %
  Body weight - Day 1: 26.3 ± 1.2 g
  Body weight - Day 5: 25.4 ± 1.5 g
  Liver weight: 1.69 ± 0.16 g
  Liver/Body weight Ratio: 6.7 ± 0.6
[2]; PXRKO/CARKO mice
  % mean (S-phase labelling index relative to control of the same mouse line = 100): 144%
  % BrDu positive Cells, Mean: 2.83%
  % BrDu positive Cells (hepatic S-phase labelling index), individual mouse: 2.16% and 1.98% and 1.82% and 2.30% and 3.77% and 5.10% and 3.71% and 1.88% and 3.06% and 2.51%
[2]; WT mice
  % mean (S-phase labelling index relative to control of the same mouse line = 100): 531%
  % BrDu positive Cells, Mean: 9.30%
  % BrDu positive Cells (hepatic S-phase labelling index), individual mouse: 9.45% and 5.54% and 16.69% and 6.32% and 9.50% and 8.09% and 7.64% and 13.60%
[2]; WT mice, 80 mg/kg IP x4 days, BrdU
  hepatocellular labelling index (S-phase), increase: approximately 5 fold
[2]; huPXR/huCAR mice
  % mean (S-phase labelling index relative to control of the same mouse line = 100): 104%
  % BrDu positive Cells, Mean: 2.00%
  % BrDu positive Cells (hepatic S-phase labelling index), individual mouse: 0.37% and 0.-18% and 1.19% and 1.86% and 3.GO and 1.98% and 3.18% and 3.24% and 2.13%
[2]; huPXR/huCAR or PXRKO/CARKO mice, 80 mg/kg IP x4 days
  effect on cell proliferation (BrdU labelling): no effect
[3]
  Hepatic apoptotic indices (TUNEL), PB-treated vs control: no statistical significance found
[4]; PXRKO/CARKO mice
  hepatocellular hypertrophy (H&E): no unequivocal evidence
  liver growth response (hypertrophy, hyperplasia), conclusion: did not induce hepatomegaly
[4]; WT mice
  liver growth response (hypertrophy, hyperplasia), conclusion: induced hypertrophy and hyperplasia
[4]; huPXR/huCAR and WT animals
  centrilobular hepatocellular hypertrophy (H&E): slight to moderate
[4]; huPXR/huCAR mice
  liver growth response (hypertrophy, hyperplasia), conclusion: induced hypertrophy but not hyperplasia
[5]; PXRKO/CARKO mice
  Cyp3a11 induction (BQ activity): absence of Cyp3a11 induction
[5]; WT animals, liver microsomes
  BQ activity: marginal increase
[5]; huPXR/huCAR mice, liver microsomes
  BQ activity, increase: 5 fold
[6]; PXRKO/CARKO mice
  PROD or BROD activities: not altered
[6]; WT and huPXR/huCAR mouse lines, at similar levels
  Cyp2b10 induction (BROD and PROD activities): marker Cyp2b10 induction was observed
[7]; PXRKO/CARKO line
  MROD and EROD enzyme activities: no increase
[7]; WT and huPXR/huCAR mice
  MROD and EROD enzyme activities: increased
[8]; PXRKO/CARKO animals
  Cyp2b10 and Cyp3a11 protein induced (Western blotting): not
[8]; WT and humanised mouse lines
  Cyp2b10 and Cyp3a11 protein (Western blotting): induced
[9]
  activation of Cyp3a11 and Cyp2b10 in vivo: predominantly CAR-dependent

## ClC1=C(Cl)C2(Cl)C3C(Cl)C(Cl)CC3C1(Cl)C2(Cl)Cl (centres unmarked) [Chlordane]
[10]; PXRKO/CARKO mice
  hypertrophy on H&E staining: not
[10]; WT and hPXR_old/hCAR mice
  liver finding on H&E staining: hypertrophy

## CCCC(C)C1(CC)C(=O)NC(=O)NC1=O (centres unmarked) [pentobarbitone, sodium pentobarbitone]
[11]; PXR/CAR hum (double humanised) mouse
  Sleeping time: 34 min
[11]; Wt mouse
  Sleeping time: 21 min
